Assays:
[1] = target: T1, IRAK4 kinase (Homo sapiens, UniProt Q9NWZ3); test: IRAK4 kinase activity test (KinEASE-STK HTRF kit); format: biochemical; conditions: IRAK4 kinase inhibition, 7 μM ATP, 37° C. 120 min
T1 sequence (Q9NWZ3 1-460): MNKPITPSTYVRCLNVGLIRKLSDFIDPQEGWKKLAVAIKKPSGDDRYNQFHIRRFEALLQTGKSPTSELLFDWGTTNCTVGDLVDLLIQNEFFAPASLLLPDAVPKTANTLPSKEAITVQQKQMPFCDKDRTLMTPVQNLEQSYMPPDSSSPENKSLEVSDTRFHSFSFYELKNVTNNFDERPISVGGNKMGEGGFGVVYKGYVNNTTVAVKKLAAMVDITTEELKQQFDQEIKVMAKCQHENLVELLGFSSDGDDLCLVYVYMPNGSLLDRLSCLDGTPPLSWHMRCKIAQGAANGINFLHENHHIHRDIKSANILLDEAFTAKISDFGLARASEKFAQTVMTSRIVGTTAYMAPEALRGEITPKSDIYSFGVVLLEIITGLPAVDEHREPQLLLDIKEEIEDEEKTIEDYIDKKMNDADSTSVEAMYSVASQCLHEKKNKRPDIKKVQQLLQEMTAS
Method: KinEASE-STK Si serine/threonine kinase kit (Cisbio) was used to detect the inhibitory effect of the compound on IRAK4 kinase activity. The specific method was: the compound was dissolved in dimethyl sulfoxide, and then it was diluted with the buffer solution of the kit by equal gradient to make the final concentration range of the tested compound in the reaction system 10000 nM-0.038 nM, then 2.5 nM kinase, 1 μM biotinylated polypeptide substrate and 7 μM adenosine triphosphate (ATP) were added in sequence and incubated at 37° C. for 120 min. Subsequently, anti-phosphorylated serine/threonine antibody coupled with europium element compound and modified XL665 streptavidin were added to the reaction system to terminate the reaction. After incubating at room temperature for 1 h, the fluorescence intensity of each well at the emission wavelength of 620 nm and 665 nm and the excitation wavelength of 337 nm was determined in HTRF mode on the microplate reader EnVision (PerkinElmer), the ratio value was calculated using the formula Ratio=(665 nm/620 nm)×10^4. By comparing with the fluorescence intensity ratio of the control group, the inhibition rate of the compound at each concentration was calculated, and then the IC50 value of the compound was obtained by fitting the nonlinear curve with the logarithmic concentration-inhibition rate by GraphPad Prism 7.

[2] = Pharmacokinetic study in mice; format: in vivo, SD mice
Method: The following experimental scheme was used to study the pharmacokinetic behavior of the compound of the present invention in mice and evaluate its pharmacokinetic characteristics.
Experimental scheme: 3 healthy SD mice, male, weighing […], were given 100 mg/kg compound by gavage with a volume of 10 mL/kg, prepared with […] (w/v). Before the test, they were fasted for 12 hours and freely drank water. Food was uniformly consumed 4 h after administration.
Three healthy SD mice, male, weighing […], were given 1 mg/kg compound intravenously with a volume of 5 mL/kg, prepared with 5% DMSO/15% solutol %80% PBS (w/v). Before the test, they were fasted for 12 hours and freely drank water. Food was uniformly consumed 4 h after administration.
0.1 mL of venous blood was taken through the submaxillary venous plexus of mice at 0.08 h, 0.25 h, 0.5 h, 1 h, 2 h, 4 h, 8 h, 24 h after gavage administration and 0.08 h, 0.25 h, 0.5 h, 1 h, 2 h, 4 h, 8 h, 24 h after intravenous administration, placed in a heparin test tube, centrifuged at 11000 rpm for 5 min, and plasma was separated, the concentration of compounds in plasma was determined by liquid chromatography-tandem mass spectrometry.

[3] = target: T2, IKZF1 (Homo sapiens, UniProt Q13422+Q96SW2); test: Degradation of IKZF1 in L363 cells by Western blot; format: cell-based; conditions: compound 1000 nM, 16 hours
T2 construct: endogenous in cells; host or cells: L363 cells
Method: (§1) The 24-well cell culture plate was inoculated with 0.95 mL L363 cells (Nanjing Co-bioer) per well with a cell density of 6×10^5 cells/well. The cell plate was placed in a 5% carbon dioxide incubator and cultured at 37° C. for 8 hours, then 50 μL of compound solution was added. The final concentration of the compound was 1000 nM. After continuing to culture for 16 hours, the cells were collected into a 1.5 mL centrifuge tube and centrifuged at 3000 rpm and 4° C. for 5 minutes. Cell precipitation was washed twice with 1×DPBS, resuspended cells were lysed with 100 μL lysate (cell lysate was Western and IP cell lysate (Beyotime), supplemented with 1 mM mixture of phenylmethylsulfonyl fluoride and protease inhibitor (Beyotime)), left on ice for 30 minutes, then centrifuged at 14000 g at 4° C. for 10 minutes, and the supernatant was taken to detect IKZF1 and IKZF3 protein level by Western blot.
(§2) The total protein concentration in the supernatant of cell lysis was determined by BCA protein quantitative kit (Tiangen). According to the concentration of total protein detected by BCA, the supernatant was adjusted to […] with PBS and 5×SDS-PAGE protein loading buffer (Beyotime), bathed in water at 100° C. for 10 minutes, then placed in ice bath for 5 minutes, centrifuged at 14000 g and 4° C. for 5 minutes, and then collected as WB loading sample. Prefabricated glue (KeyGEN) was used for protein electrophoresis with a loading amount of 10 μL (total protein 2 μg). After Tris-MOPS-SDS electrophoresis solution (Adamas), 120V constant pressure electrophoresis was performed. After electrophoresis, the protein on the adhesive strip was transferred to PVDF membrane with a constant current of […] for 50 minutes. After the membrane was transferred, the membrane was incubated in 5% bovine serum albumin solution for 2 hours at room temperature. After blocking, PVDF membranes were incubated with IKZF1 primary antibody (CST) and IKZF3 primary antibody (Abcam) overnight at 4°, the membranes were washed with TBST buffer (2.4 g Tris, 8.8 g NaCl, 1.5 mL Tween 20, pH adjusted to 7.4, constant volume to 1 L) for 30 minutes, incubated with secondary antibody (Abcam) for 2 hours at room temperature, finally incubated with Clarity Western ECL Substrate (BIO-RAD) for 5 minutes for luminescence development, chemiluminescence imaging system (Clinx, chemiScope 6200 Touch) was used for development and protein mapping photography. The protein map was analyzed by Clinx chemiluminescence analysis software for grayscale values. Using the formula: grayscale correction value=(target protein grayscale value/corresponding internal reference grayscale value)×10^3, the grayscale correction value of each sample was calculated. The degradation rate was calculated by comparing with the grayscale correction value of the control group.

[4] = target: T3, IKZF3 (Homo sapiens, UniProt Q96SW2+Q9UKT9); test: Degradation of IKZF3 in L363 cells by Western blot; format: cell-based; conditions: compound 1000 nM, 16 hours
T3 construct: endogenous in cells; host or cells: L363 cells
Method: as §1, §2

[5] = male, SD, mouse, po, gavage administration 100 mg/kg, plasma

T3 sequence (Q9UKT9 whole entry): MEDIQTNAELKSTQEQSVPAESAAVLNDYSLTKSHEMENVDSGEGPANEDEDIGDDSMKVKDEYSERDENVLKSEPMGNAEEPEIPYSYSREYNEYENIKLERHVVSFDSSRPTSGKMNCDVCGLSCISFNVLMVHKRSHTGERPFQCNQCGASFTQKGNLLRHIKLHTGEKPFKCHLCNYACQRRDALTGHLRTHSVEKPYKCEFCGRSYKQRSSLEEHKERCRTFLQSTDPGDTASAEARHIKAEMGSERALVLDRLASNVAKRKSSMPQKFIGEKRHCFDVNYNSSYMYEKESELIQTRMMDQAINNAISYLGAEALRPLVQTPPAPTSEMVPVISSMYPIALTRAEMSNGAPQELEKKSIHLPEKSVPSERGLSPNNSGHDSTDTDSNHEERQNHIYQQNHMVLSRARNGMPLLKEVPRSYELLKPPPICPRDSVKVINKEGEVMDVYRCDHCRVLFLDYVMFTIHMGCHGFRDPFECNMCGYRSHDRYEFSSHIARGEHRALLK
T3 sequence (Q96SW2 whole entry): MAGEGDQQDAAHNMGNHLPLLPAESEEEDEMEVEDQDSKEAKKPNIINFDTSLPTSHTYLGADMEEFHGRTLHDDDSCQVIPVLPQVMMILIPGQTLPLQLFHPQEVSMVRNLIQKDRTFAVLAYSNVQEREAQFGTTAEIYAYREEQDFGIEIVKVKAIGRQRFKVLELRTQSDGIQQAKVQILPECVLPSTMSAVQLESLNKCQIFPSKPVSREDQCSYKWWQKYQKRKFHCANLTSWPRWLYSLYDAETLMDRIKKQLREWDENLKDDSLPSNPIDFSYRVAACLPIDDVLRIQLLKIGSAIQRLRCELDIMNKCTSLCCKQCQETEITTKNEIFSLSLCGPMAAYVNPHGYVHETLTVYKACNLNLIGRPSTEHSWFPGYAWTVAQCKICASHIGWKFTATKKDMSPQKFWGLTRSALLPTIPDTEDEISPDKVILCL
T3 sequence (Q16531 whole entry partner): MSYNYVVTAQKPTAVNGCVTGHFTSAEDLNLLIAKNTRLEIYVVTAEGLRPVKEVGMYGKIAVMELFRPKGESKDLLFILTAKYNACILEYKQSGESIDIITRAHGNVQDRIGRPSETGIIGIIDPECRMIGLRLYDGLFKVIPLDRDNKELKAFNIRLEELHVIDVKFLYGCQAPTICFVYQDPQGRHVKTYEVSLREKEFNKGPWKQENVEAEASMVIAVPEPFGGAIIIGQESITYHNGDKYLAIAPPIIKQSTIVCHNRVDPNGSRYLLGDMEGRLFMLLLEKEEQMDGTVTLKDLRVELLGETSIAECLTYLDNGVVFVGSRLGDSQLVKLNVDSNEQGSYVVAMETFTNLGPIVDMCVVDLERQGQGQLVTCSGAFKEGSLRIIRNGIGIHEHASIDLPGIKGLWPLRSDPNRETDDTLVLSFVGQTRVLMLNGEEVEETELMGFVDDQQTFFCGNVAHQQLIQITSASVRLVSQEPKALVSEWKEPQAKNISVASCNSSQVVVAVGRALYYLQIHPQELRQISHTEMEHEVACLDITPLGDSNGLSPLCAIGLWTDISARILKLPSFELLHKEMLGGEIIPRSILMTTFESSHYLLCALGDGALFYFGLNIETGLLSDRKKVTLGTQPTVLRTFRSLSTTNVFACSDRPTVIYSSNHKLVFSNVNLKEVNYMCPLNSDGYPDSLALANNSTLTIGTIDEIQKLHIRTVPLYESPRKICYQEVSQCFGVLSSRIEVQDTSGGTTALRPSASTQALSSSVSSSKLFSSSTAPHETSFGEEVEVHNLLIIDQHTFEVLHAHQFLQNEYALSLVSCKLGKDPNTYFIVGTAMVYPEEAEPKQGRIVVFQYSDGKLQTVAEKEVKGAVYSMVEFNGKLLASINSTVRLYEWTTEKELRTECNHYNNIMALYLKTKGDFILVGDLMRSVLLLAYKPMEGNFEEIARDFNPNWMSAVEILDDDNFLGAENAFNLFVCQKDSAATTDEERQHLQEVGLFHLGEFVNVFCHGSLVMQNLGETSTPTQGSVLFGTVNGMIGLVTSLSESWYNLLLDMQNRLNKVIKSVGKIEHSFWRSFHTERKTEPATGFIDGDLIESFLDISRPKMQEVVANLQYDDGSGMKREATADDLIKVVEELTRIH
T2 sequence (Q13422 whole entry): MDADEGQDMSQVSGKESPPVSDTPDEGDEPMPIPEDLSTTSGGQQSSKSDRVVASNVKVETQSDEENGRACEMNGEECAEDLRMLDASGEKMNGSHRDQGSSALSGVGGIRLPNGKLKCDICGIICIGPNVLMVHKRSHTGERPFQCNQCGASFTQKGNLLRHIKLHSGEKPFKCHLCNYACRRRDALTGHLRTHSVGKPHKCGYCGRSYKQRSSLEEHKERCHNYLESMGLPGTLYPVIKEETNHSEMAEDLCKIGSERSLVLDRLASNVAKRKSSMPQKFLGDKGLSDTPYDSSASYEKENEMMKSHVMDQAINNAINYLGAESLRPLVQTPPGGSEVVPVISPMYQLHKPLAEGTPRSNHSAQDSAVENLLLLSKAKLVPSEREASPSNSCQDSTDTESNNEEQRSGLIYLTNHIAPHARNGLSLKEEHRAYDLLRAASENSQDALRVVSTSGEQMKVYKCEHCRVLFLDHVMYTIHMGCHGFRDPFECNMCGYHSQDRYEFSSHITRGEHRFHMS
T2 sequence (Q96SW2 whole entry): as the sequence (Q96SW2 whole entry) above
T2 sequence (Q16531 whole entry partner): as the sequence (Q16531 whole entry partner) above

SMILES: CC(C)(O)c1cc2nn(C3CCN(CCCC4CCN(c5ccc6c(c5)C(=O)N(C5CCC(=O)NC5=O)C6=O)CC4)CC3)cc2cc1NC(=O)c1cccc(C(F)(F)F)n1 (stereo not drawn) [Example 6, N-(2-(1-(3-(1-(2-(2,6-dioxopiperidin-3-yl)-1,3-dioxoisoindolin-5-yl)piperidin-4-yl)propyl)piperidin-4-yl)-6-(2-hydroxyprop-2-yl)-2H-indazol-5-yl)-6-(trifluoromethyl) pyridinecarboxamide]
- IC50 [1]: 55.7 nM
- CL_pred ([2]; intravenous injection 1 mg/kg): 6.7 mL/min/kg
- Vss_pred ([2]; intravenous injection 1 mg/kg): 4.6 L/kg
- AUC(0-t) ([2]; male, SD, mouse, intravenous injection 1 mg/kg, plasma): 2150 ng·h/mL
- bioavailability ([2]; male, SD, mouse, plasma, po, gavage 100 mg/kg vs intravenous 1 mg/kg): 14.2%
- AUC(0-t) [2, 5]: 30500 ng·h/mL
- Cmax [2, 5]: 1860 ng/mL
- IKZF1 degradation rate (%) [3]: 26.7 ± 2.4%
- IKZF3 degradation rate (%) [4]: 8.4 ± 6.0%

— US12624019B2, “Indazole derivative, and preparation method therefor and use thereof” (Leadingtac Pharmaceutical (Shaoxing) Co., Ltd., priority 2020, dated 2026)
